Test results published in BindingDB's records for patent US20250215012 (University of Michigan, 2025).

Molecular target: DNA damage-binding protein 1/Protein cereblon (Homo sapiens, UniProt Q96SW2)
Experiment: Not found
Description: Not found

Chain of DNA damage-binding protein 1/Protein cereblon (Q16531 whole entry): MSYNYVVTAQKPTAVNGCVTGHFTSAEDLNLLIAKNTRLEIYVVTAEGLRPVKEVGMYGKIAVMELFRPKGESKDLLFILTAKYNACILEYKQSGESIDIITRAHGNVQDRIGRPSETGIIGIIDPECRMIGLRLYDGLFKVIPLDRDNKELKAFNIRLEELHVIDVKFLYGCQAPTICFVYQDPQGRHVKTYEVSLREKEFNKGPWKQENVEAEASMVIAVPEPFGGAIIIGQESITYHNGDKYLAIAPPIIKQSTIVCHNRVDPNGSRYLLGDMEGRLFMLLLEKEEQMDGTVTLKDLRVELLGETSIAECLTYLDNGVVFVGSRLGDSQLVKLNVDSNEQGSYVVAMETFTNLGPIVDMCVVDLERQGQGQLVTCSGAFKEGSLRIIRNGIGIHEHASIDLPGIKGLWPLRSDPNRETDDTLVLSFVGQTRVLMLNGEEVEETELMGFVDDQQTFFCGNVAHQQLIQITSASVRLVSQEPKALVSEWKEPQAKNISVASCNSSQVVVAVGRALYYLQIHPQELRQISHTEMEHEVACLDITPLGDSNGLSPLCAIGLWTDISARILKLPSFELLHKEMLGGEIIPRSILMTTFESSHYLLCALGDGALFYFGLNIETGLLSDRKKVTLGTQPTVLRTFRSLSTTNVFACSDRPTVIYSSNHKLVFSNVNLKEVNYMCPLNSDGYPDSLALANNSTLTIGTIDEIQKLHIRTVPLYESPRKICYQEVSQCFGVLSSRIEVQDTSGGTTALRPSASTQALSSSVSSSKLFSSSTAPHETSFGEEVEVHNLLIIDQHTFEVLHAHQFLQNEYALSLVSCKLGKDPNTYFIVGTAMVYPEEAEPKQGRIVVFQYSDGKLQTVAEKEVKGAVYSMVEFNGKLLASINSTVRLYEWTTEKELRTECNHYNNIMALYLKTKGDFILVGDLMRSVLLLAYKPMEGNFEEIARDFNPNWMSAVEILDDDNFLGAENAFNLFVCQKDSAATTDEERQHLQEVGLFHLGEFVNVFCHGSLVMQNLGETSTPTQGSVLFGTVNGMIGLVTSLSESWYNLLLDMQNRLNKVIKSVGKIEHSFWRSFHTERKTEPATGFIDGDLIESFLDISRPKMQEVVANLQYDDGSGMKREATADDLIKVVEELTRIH
Chain of DNA damage-binding protein 1/Protein cereblon (Q96SW2 whole entry): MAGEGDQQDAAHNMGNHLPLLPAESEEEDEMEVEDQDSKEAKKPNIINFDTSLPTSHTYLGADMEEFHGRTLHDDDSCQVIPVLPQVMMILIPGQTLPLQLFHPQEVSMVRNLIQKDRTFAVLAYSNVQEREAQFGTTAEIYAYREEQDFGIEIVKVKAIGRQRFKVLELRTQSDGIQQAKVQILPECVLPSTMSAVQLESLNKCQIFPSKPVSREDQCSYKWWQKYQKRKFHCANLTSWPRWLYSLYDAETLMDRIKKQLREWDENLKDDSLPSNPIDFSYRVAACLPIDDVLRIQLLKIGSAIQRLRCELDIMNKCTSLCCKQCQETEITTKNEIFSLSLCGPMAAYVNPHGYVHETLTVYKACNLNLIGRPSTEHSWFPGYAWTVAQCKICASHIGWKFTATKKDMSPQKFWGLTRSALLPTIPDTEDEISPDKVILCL

| SMILES | IC50 [nM] |
| --- | --- |
| O=C1CC[C@H](N2Cc3c(ccc4c3OCC43CCN(Cc4ccc5cn[nH]c5c4)CC3(F)F)C2=O)C(=O)N1 (some centres not stated) [US20250215012, Example B33] | 100 to 500 |
| Cn1ncc2ccc(CN3CCC4(COc5c4ccc4c5CN([C@H]5CCC(=O)NC5=O)C4=O)C(F)(F)C3)cc21 (some centres not stated) [US20250215012, Example B34] | 100 to 500 |
